Values joined by “and” are separate entries in the source; they are usually repeats but may differ in a detail not shown here. Identical values can stand only once. Like-named read-outs stand apart in the source and are kept apart here.
Target: T1, hPTP1B1-400 (Homo sapiens, UniProt P18031)
T1 sequence (P18031 1-400): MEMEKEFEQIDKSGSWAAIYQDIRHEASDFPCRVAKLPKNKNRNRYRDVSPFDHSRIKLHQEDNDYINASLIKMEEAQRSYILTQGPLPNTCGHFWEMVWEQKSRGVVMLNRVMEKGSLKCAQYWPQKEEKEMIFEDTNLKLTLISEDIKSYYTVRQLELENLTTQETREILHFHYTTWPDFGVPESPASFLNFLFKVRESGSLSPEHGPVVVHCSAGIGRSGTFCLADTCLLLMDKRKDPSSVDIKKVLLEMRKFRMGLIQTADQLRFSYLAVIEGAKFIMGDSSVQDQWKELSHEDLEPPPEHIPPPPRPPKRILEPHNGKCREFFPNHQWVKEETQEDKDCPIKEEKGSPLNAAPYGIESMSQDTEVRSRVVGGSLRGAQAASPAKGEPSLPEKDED
Test: PTP1B inhibition assay (spectrophotometric, 4-nitrophenyl phosphate)
Assay type: biochemical
Settings: for ΔA, activity difference between UA and the compound: absolute pIC50 difference against ursolic acid
Experimental: The inhibitory activity was determined as a percentage compared to the blank (Buffer) according to the following equation: %InhibitionPTP1B=1−A405s/A405b×100%, (1) where A405(s) is the ΔA of the sample (At20 − At0), A405(b) is the ΔA of the blank obtained in the same manner as that of the sample. Using the data obtained, the enzyme inhibition curve was plotted, for which the average percentage of inhibition was plotted as a function of the inhibitor concentration.

[1] = DoseResp model fit, Origin 8.0, axis C (mM), read-out: LOGx0 of the IC50 curve
[2] = enzyme 66 nM, 4-NP 0.125 mM, Tris-HCl pH 6.8, 20 min, room temperature, read-out: IC50
[3] = negative log of the IC50 in Molar, read-out: pIC50 (converted)
[4] = Hill1 model fit, Origin 8.0, axis C (mM), read-out: k of the IC50 curve
[5] = negative log of the IC50 in Molar
[6] = IC50 (μM), enzyme 66 nM, 4-NP 0.125 mM, Tris-HCl pH 6.8, 20 min, room temperature
[7] = LOGx0 of the IC50 curve, DoseResp model fit, Origin 8.0, axis C (mM)
[8] = pIC50, negative log of the IC50 in Molar

SMILES	IC50 [1] [mM]	ΔA, activity difference between UA and the compound	IC50 [2] [mM]	IC50 [3] [mM]	IC50 [4] [mM]	pIC50 [5]	IC50 [6] [mM]	IC50 [7] [mM]	IC50 [8] [mM]	%I (0.02 mM compound) [%]	%I (1 mM compound) [%]
COc1cc(-c2cc(=O)c3c(O)c(O)c(OC)cc3o2)ccc1O [Compound 5, 4',5,6-Trihydroxy-3',7-dimethoxyflavone]	0.0573 ± 0.0213	0.42 and 0.4	0.0573 ± 2e-05	0.0575							
O=C(O[C@@H]1Cc2c(O)cc(O)cc2O[C@@H]1c1ccc(O)c(O)c1)c1cc(O)c(O)c(O)c1 [Compound 82, (-)-Epicatechin 3-O-gallate]		0.8	0.1424 ± 7e-06		0.142 ± 0.00656	3.85					
CC[C@H](/C=C/[C@@H](C)[C@H]1CC[C@H]2C3=CC[C@H]4C[C@@H](OC(C)=O)CC[C@]4(C)[C@H]3CC[C@]12C)C(C)C [Compound 85, α-Spinasterol acetate]		1.1					0.2772 ± 1e-05	0.277 ± 0.0114	0.275		
CN1C(=O)c2ccccc2-n2c(nc3ccccc3c2=O)[C@@H]1Cc1ccccc1 [Compound 40, Benzomalvin A]	0.424 ± 0.00536	1.3	0.4242 ± 5e-06	0.427							
CC(=CCCC(C)C1CCC2(C)C3=CCC4C(C)(C)C(=O)CCC4(C)C3CCC12C)C(=O)O (stereo not drawn) [Compound 4, Masticadienonic acid]	0.0491 ± 0.00475	0.4	0.0491 ± 4e-06	0.049							
COc1ccc([C@H]2OC[C@H]3[C@@H]2CO[C@@H]3c2ccc3c(c2OC)OCO3)cc1OC [Compound 47, 2'-Methoxykobusin]		0.8	0.1253 ± 9e-06		0.125 ± 0.00914	3.90					
COC(=O)/C(C)=C\CC[C@H](C)[C@@H]1CC[C@]2(C)C3=CCC4C(C)(C)C(=O)CC[C@]4(C)C3CC[C@@]12C (stereo partly drawn) [Compound 86, Methyl ester of masticadienonic acid]	0.325 ± 0.00894	1.2	0.3245 ± 1e-06	0.324							
CC(=O)OC[C@H]1O[C@@H](Oc2cc(O)cc3oc(=O)cc(-c4ccc(O)c(O)c4)c23)[C@H](O)[C@@H](O)[C@H]1O [Compound 67, 6''-O-acetyl-5-O-β-D-galactopyranosyl-7,3',4'-trihydroxy-4-phenylcoumarin]	0.254 ± 0.203	1.1	0.2543 ± 0.0002			3.59					
COc1cc(OC2OC(CO)C(O)C(O)C2O)c2c(-c3ccc(O)c(O)c3)cc(=O)oc2c1 [Compound 2, 5-O-(β-D-Glucopyranosyl)-7-methoxy-3'-4'-dihydroxy-4-phenylcoumarin]		0.3					0.0404 ± 2e-05	0.0404 ± 0.0232	0.0407	42.48 ± 1.16	95.13 ± 0.54
COc1c2c(cc3oc(C)cc(=O)c13)OC(C)(C)[C@H](O)C2 [Compound 94, (+)-5-Methoxyhamaudol]		1.1	0.2985 ± 0.00015		0.298 ± 0.146	3.53					
C/C(=C/CC[C@H](C)[C@@H]1CC[C@]2(C)C3=CC[C@H]4C(C)(C)[C@H](O)CC[C@]4(C)[C@H]3CC[C@@]12C)C(=O)O [Compound 49, 3α-Hydroxymasticadienonic acid]	0.151 ± 0.0053	0.8	0.1507 ± 5e-06			3.82					
CC(=O)OCC(C)C1CCC2(C)C1CCC1(C)C2CCC2C3(C)CCCC(C)(C)C3CCC21C (stereo not drawn) [Compound 90, 21-α-H-Hopane acetate]		1.6 and 1.61	0.8839 ± 0.0002	0.891	0.884 ± 0.213						
C=CC(C)(C)[C@@]12Nc3ccccc3[C@]1(O)C[C@@]1(O)c3nc4ccccc4c(=O)n3[C@@H](C(C)C)C(=O)N12 [Compound 97, Albolutein B]		0.1	0.0258 ± 0.0258			4.59					
COc1cc(CCc2ccc(OC)c(OC)c2)cc(OC)c1 [Compound 91, 3,3',4',5-Tetramethoxybibenzyl]		1.3					0.4195 ± 6e-06	0.42 ± 0.00629	0.417		
CCCCCCCCCCCCCCCCCCCCOC(=O)C=Cc1ccc(O)c(OC)c1 [Compound 43, Eicosyl 4-hydroxy-3-methoxy-cinnamate]	0.648 ± 0.131	1.5	0.6483 ± 0.00013	0.646							
CCC(C=CC(C)C1CCC2C3=CCC4CC(O)CCC4(C)C3CCC21C)C(C)C (stereo not drawn) [Compound 84, α-Spinasterol]	0.989 ± 0.137	1.7 and 1.66	0.9891 ± 0.00014	1							

SMILES	IC50 [1] [mM]	ΔA, activity difference between UA and the compound	IC50 [2] [mM]	IC50 [3] [mM]	IC50 [4] [mM]	pIC50 [5]	IC50 [6] [mM]	IC50 [7] [mM]	IC50 [8] [mM]	%I (0.02 mM compound) [%]	%I (1 mM compound) [%]
C=C(C)C(C)(C)CCC(C)C1CCC2(C)C3CCC4C(C)(CCC(O)C4(C)C)C3=CCC12C (stereo not drawn) [Compound 64, 5α-lanosta-24,24-dimethyl-9(11),25-dien-3β-ol]	0.399 ± 0.025	1.3	0.3985 ± 3e-05	0.398							
CC(C)(O)CCC(=O)[C@](C)(O)[C@H]1[C@H](O)C[C@@]2(C)[C@@H]3CC=C4[C@@H](C[C@H](O)[C@@H](O[C@@H]5O[C@H](CO)[C@@H](O)[C@H](O)[C@H]5O)C4(C)C)[C@]3(C)C(=O)C[C@]12C [Compound 14, 3-O-β-D-Glucopyranosyl-23,24-dihydrocucurbitacin F]	0.358 ± 0.0127	1.2	0.3583 ± 1.2e-05			3.45					
COc1cc(O)cc(CCc2cccc(O)c2)c1 [Compound 34, Batatasin III]	0.247 ± 0.0675	1.1	0.2474 ± 7e-05	0.245							
O=C(OCC1OC(Oc2c(-c3ccc(O)c(O)c3)oc3cc(O)cc(O)c3c2=O)C(O)C(O)C1O)c1ccccc1 [Compound 8, Quercetin-3-O-(6''-benzoyl)-β-D-galactoside]	0.0888 ± 0.0504	0.6	0.0888 ± 5e-05	0.0891							
COc1cc(=O)oc2c(O[C@@H]3O[C@H](CO)[C@@H](O)[C@H](O)[C@H]3O)ccc(C)c12 [Compound 63, 8-β-D-glucopyranosyloxy-4-methoxy-5-methyl-coumarin]	0.166 ± 0.0177	0.9	0.1657 ± 2e-05			3.78					
O=C1C[C@@H](c2ccccc2)Oc2cc(O)cc(O)c21 [Compound 53, Pinocembrin]	0.306 ± 0.0184	1.1	0.3062 ± 2e-05	0.309							
C=CC(C)(C)C12CC3(O)c4nc5ccccc5c(=O)n4C(C(C)C)C(=O)N3C1N(C(C)=O)c1ccccc12 (stereo not drawn) [Compound 96, Albolutein A]		-0.1	0.0191 ± 0.0014	0.0191							
C=C1C(=O)O[C@@H]2C[C@@]3(C)CCC=C(C)[C@@H]3C[C@H]12 [Compound 32, Isoalloalantolactone]	0.443 ± 0.0513	1.3	0.4432 ± 5e-05			3.35					
CC(C)(O)C(O)C1CC(C2CCC3(C)C4=CCC5C(C)(C)C(=O)CCC5(C)C4CCC23C)C(O)O1 (stereo not drawn) [Compound 10, Melianodiol]		0.6	0.0921 ± 4e-05	0.0912							
CC(=O)OC(C)(C)/C=C/C(=O)[C@](C)(O)[C@H]1[C@H](O)C[C@@]2(C)[C@@H]3CC=C4[C@@H](C[C@H](O[C@@H]5O[C@H](CO)[C@@H](O)[C@H](O)[C@H]5O)C(=O)C4(C)C)[C@]3(C)C(=O)C[C@]12C [Compound 15, Arvenin I]		1.4	0.5643 ± 4.1e-05		0.564 ± 0.041	3.25					
COc1c(O)cc2cc(OC)c3cc(O)ccc3c2c1OC [Compound 41, Gymnopusin]	0.431 ± 0.0111	1.3	0.4314 ± 1e-05	0.427							
Oc1cccc(CCc2ccc3c(c2)OCO3)c1 [Compound 25]	0.662 ± 0.134	1.5	0.6621 ± 0.00013			3.18					
CC1(C)C=Cc2cc3ccc(=O)oc3cc2O1 [Compound 93, Xanthyletin]		1.6	0.8646 ± 0.00015	0.871	0.865 ± 0.148						
O=c1c(O[C@@H]2O[C@H](CO)[C@H](O)[C@H](O)[C@H]2O)c(-c2ccc(O)cc2)oc2cc(O)cc(O)c12 [Compound 51, Trifolin]	0.859 ± 0.0259	1.6	0.859 ± 0.0003	0.851							
CC(=O)OC[C@H]1O[C@@H](Oc2cc(O)cc3oc(=O)cc(-c4ccc(O)cc4)c23)[C@H](O)[C@@H](O)[C@H]1O [Compound 18, 6''-O-Acetyl-5-O-β-D-galactopyranosyl-7,4'-dihydroxy-4-phenylcoumarin]		1.2	0.3486 ± 3e-05		0.349 ± 0.0341	3.46					

— paper PMC10644722, “Discovery of inhibitors of protein tyrosine phosphatase 1B contained in a natural products library from Mexican medicinal plants and fungi using a combination of enzymatic and in silico methods**” (Frontiers in Pharmacology, 2023)
